# Activity calls are given as the source filed them. The rule behind the calls is not given here.
# Columns and labels:
# [1] = target: T1, Stimulator of interferon genes protein (Homo sapiens, UniProt Q86WV6); test: Agonist activity at human STING HAQ variant in human THP1-Blue ISG cells assessed as fold change in stimulation activity measured after 24 hrs incubation by QUANTI-Blue based microplate reader; format: cell-based
# Target sequence in this assay (Q86WV6 whole entry, looked up, change not shown): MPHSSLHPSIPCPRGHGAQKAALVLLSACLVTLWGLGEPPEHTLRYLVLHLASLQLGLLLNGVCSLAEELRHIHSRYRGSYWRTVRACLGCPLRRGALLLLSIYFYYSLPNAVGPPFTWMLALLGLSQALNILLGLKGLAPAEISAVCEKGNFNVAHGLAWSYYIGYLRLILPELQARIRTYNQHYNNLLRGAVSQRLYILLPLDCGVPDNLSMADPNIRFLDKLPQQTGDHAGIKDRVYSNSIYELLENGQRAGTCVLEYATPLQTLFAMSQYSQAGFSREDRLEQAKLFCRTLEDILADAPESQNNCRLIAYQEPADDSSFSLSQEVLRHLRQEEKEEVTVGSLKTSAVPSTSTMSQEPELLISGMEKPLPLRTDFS
# [2] = target: T1, Stimulator of interferon genes protein; test: Binding affinity to wild type His-tagged STING (unknown origin) measured after 3 hrs incubation by HTRF assay
# Target sequence in this assay (Q86WV6 whole entry): as the sequence (Q86WV6 whole entry, looked up, change not shown) above
# [3] = target: T1, Stimulator of interferon genes protein; test: Agonist activity at STING R232 mutant (unknown origin) expressed in human THP1-Dual cells assessed as fold change in stimulation activity measured after 24 hrs incubation by QUANTI-Luc4 based microplate reader; format: cell-based
# Target sequence in this assay (Q86WV6 whole entry, looked up, change not shown): as above
# [4] = target: T2, Stimulator of interferon genes protein (Mus musculus, UniProt Q3TBT3); test: Agonist activity at mouse STING expressed in human THP1-Dual cells assessed as fold change in stimulation activity measured after 24 hrs incubation by QUANTI-Luc4 based microplate reader; format: cell-based
# T2 sequence (Q3TBT3 whole entry): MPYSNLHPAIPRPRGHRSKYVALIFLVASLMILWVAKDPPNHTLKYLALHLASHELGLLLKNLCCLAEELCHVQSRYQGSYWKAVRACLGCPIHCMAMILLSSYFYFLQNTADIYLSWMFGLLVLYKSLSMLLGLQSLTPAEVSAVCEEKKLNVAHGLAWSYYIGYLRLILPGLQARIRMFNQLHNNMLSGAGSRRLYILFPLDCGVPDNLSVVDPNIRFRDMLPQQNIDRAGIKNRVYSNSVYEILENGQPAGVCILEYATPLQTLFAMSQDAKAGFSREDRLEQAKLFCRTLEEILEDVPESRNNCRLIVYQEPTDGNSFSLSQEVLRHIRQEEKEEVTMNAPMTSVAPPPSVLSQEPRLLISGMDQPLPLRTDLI
# THP1-Blue ISG = test: Induction of STING phosphorylation in human THP1-Blue ISG cells at 13 to 50 uM measured after 3 hrs by Western blot analysis; format: cell-based; details: filed as agonist, dose 13-50 µM
# THP-1 [5] = test: Induction of interferon secretion in human THP-1 cells assessed as IFN-beta level at 13 uM measured after 24 hrs by ELISA; format: functional, cell-based
# [6] = target: T3, Interferon regulatory factor 3 (Homo sapiens) (UniProt Q14653); test: Induction of IRF3 phosphorylation in human THP1-Blue ISG cells at 13 to 50 uM measured after 3 hrs by Western blot analysis; format: cell-based; details: filed as agonist, dose 13-50 µM
# T3 sequence (whole entry): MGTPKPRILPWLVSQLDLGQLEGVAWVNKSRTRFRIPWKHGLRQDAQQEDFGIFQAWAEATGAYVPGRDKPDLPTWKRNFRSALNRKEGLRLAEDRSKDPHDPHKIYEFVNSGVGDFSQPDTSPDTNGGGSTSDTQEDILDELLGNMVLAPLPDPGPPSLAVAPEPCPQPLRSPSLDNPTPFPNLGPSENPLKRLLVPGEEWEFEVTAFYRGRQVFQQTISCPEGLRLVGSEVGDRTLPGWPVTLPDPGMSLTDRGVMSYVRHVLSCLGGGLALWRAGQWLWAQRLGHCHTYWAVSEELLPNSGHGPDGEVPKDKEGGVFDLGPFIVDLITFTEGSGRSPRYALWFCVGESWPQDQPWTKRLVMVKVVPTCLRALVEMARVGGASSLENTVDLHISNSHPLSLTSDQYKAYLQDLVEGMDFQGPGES
# THP-1 [7] = test: Induction of interferon response in STING knock out human THP-1 cells assessed as fold change in stimulation activity at 13 to 25 uM measured after 24 hrs incubation by QUANTI-Luc4 based microplate reader; format: functional, cell-based; details: dose 13-25 µM
# [8] = target: T1, Stimulator of interferon genes protein; test: Agonist activity at human STING in human THP1-Blue ISG cells measured after 24 hrs incubation by QUANTI-Blue based microplate reader; format: cell-based
# Target sequence in this assay (Q86WV6 whole entry): as the sequence (Q86WV6 whole entry, looked up, change not shown) above
# [9] = Chemical stability of the compound in MeOH/H2O assessed as half life by LC-MS/MS analysis; format: physicochemical
# MC-38 [10] = test: In vivo antitumor activity against mouse MC-38 cells inoculated in C57BL/6 mouse assessed as complete tumor regression (CR) at 60 mg/kg, po Q3D co-administered with anti-PD1 measured for 15 to 20 days; format: functional; details: time 15-20 day
# [11] = Chemical stability of the compound in MeOH/H2O solvent assessed as half life by LC-MS/MS analysis; format: physicochemical
# [12] = Metabolic stability in mouse liver microsomes assessed as half life at 10 uM measured up to 60 mins by LC-MS/MS analysis; format: ADME, Microsome
# [13] = Stability of the compound in human plasma assessed as half life by LC-MS/MS analysis; format: ADME, cell-free
# MC-38 [14] = test: In vivo antitumor activity against mouse MC-38 cells inoculated in C57BL/6 mouse assessed as as increase in moue survival time at 60 mg/kg, po Q3D measured for 15 to 20 days; format: functional, organism-based; details: time 15-20 day
# [15] = Metabolic stability in human liver microsomes assessed as half life at 10 uM measured up to 60 mins by LC-MS/MS analysis; format: ADME, Microsome
# MC-38 [16] = test: In vivo antitumor activity against mouse MC-38 cells inoculated in C57BL/6 mouse assessed as complete tumor regression (CR) at 60 mg/kg, po Q3D measured for 15 to 20 days; format: functional, organism-based; details: time 15-20 day
# [17] = Stability of the compound in mouse plasma assessed as half life by LC-MS/MS analysis; format: ADME, cell-free
smiles,measurement,setting,value
CONC(=O)C(C)CNC(=O)c1sc2cc(OC)c(Br)cc2c1F (configuration not stated),EC50,[1],> 100 µM
CONC(=O)C(F)(F)CNC(=O)c1sc2cc(OC)c(Br)cc2c1F,EC50,[1],> 100 µM
CCC(CNC(=O)c1sc2cc(OC)c(OC)c(F)c2c1F)C(=O)O (configuration not stated),EC50,[1],> 100 µM
COc1cc2sc(C(=O)NCC(=O)O)c(F)c2cc1OC,EC50,[1],> 100 µM
COc1cc2sc(C(=O)NCCC(N)=O)c(F)c2cc1OC,EC50,[1],> 100 µM
COc1cc2sc(C(=O)NCC(C)C(=O)O)c(F)c2cc1Br (configuration not stated),EC50,[1],> 100 µM
COc1cc2sc(C(=O)N[C@@H](C)CC(=O)O)c(F)c2cc1OC,EC50,[1],> 100 µM
COc1cc2sc(C(=O)NCCS(N)(=O)=O)c(F)c2cc1OC,EC50,[1],> 100 µM
COc1cc2sc(C(=O)NCC3(C(=O)O)CCC3)c(F)c2cc1OC,IC50,[2],31.2 µM
same,EC50,[3],18.4 µM
same,EC50,[1],3.7 µM
same,EC50,[4],22 µM
CC[C@H](CNC(=O)c1sc2cc(OC)c(OC)cc2c1F)C(=O)O,IC50,[2],24.1 µM
same,EC50,[3],12 µM
same,Activity,THP1-Blue ISG,Active
same,EC50,[1],5.1 µM
same,Activity,THP-1 [5],Active
same,EC50,[4],11.9 µM
same,Activity,[6],Active
same,Activity,THP-1 [7],inactive
COc1cc2sc(C(=O)NCCC(=O)O)c(F)c2cc1F,EC50,[1],> 100 µM
COc1cc2sc(C(=O)NCC(C)C(=O)O)c(F)c2cc1OC (racemic),IC50,[2],30.6 µM
same,EC50,[3],33.1 µM
same,EC50,[1],7.1 µM
same,EC50,[4],25.1 µM
COc1cc2sc(C(=O)NCCC(=O)NS(C)(=O)=O)c(F)c2cc1OC,EC50,[1],> 100 µM
COc1cc2sc(C(=O)NC[C@H](C)C(=O)O)c(F)c2cc1OC,IC50,[2],33.3 µM
same,EC50,[3],58.5 µM
same,EC50,[1],6.2 µM
same,EC50,[4],61.2 µM
COc1cc2sc(C(=O)NCCC(=O)O)c(F)c2cc1OC,IC50,[2],49.8 µM
same,EC50,[1],30.3 µM
same,EC50,[8],30.3 µM
same,half-life,[9],> 48 h
COc1cc2sc(C(=O)NCC(C)(C)C(=O)O)c(F)c2cc1OC,EC50,[1],> 100 µM
CCC(CNC(=O)c1[se]c2cc(OC)c(OC)cc2c1F)C(=O)O (configuration not stated),EC50,[3],13.3 µM
same,EC50,[1],3.8 µM
same,EC50,[4],12.5 µM
COc1cc2sc(C(=O)NCCC(O)(C(F)(F)F)C(F)(F)F)c(F)c2cc1OC,EC50,[1],> 100 µM
COc1cc2sc(C(=O)NCC3(C(=O)O)CC3)c(F)c2cc1OC,EC50,[1],> 100 µM
COc1cc2sc(C(=O)NCCc3nnn[nH]3)c(F)c2cc1OC,EC50,[1],> 100 µM
COc1cc2sc(C(=O)NCCC(=O)O)c(I)c2cc1OC,EC50,[1],> 100 µM
COc1cc2sc(C(=O)NCCC(=O)O)c(F)c2cc1OC(C)C,EC50,[1],> 100 µM
C=Cc1cc2c(F)c(C(=O)NCCC(=O)O)sc2cc1OC,EC50,[1],> 100 µM
COc1cc2sc(C(=O)NCC(F)(F)C(=O)O)c(F)c2cc1OC,EC50,[1],> 100 µM
COc1cc2sc(C(=O)NCC(F)(F)C(=O)O)c(F)c2cc1Br,EC50,[1],> 100 µM
CONC(=O)CCNC(=O)c1sc2cc(OC)c(OC)cc2c1F,EC50,[1],33 µM
C#Cc1c(C(=O)NCCC(=O)O)sc2cc(OC)c(OC)cc12,EC50,[1],> 100 µM
CC[C@@H](CNC(=O)c1sc2cc(OC)c(OC)cc2c1F)C(=O)O,IC50,[2],65.5 µM
same,EC50,[3],51.3 µM
same,EC50,[1],11.3 µM
same,EC50,[4],45.9 µM
CCC(CNC(=O)c1sc2cc(Br)c(OC)cc2c1F)C(=O)O (configuration not stated),IC50,[2],> 100 µM
same,EC50,[3],> 100 µM
same,EC50,[1],13.2 µM
same,EC50,[4],> 100 µM
COc1cc2sc(C(=O)NC(C)(C)CC(=O)O)c(F)c2cc1OC,EC50,[1],> 100 µM
COc1cc2sc(C(=O)N[C@@H](CC(=O)O)C(N)=O)c(F)c2cc1OC,EC50,[1],> 100 µM
CCOc1cc2c(F)c(C(=O)NCCC(=O)O)sc2cc1OC,EC50,[1],> 100 µM
COc1cc2sc(C(=O)NCCCC(=O)O)c(F)c2cc1OC,EC50,[1],54.6 µM
COc1cc2sc(C(=O)NCCC(=O)O)c(C)c2cc1OC,EC50,[1],> 100 µM
COc1cc2sc(C(=O)NCCB(O)O)c(F)c2cc1OC,EC50,[1],> 100 µM
COc1cc2[se]c(C(=O)NCC(C)C(=O)O)c(F)c2cc1OC (configuration not stated),EC50,[3],26.1 µM
same,EC50,[1],5.7 µM
same,EC50,[4],27 µM
COc1cc2sc(C(=O)NCCC(=O)O)c(Br)c2cc1OC,EC50,[1],47.2 µM
CCC(CNC(=O)c1sc2cc(OC)c(OC(F)F)cc2c1F)C(=O)O (configuration not stated),EC50,[1],> 100 µM
COc1cc2sc(C(=O)NCCC(=O)O)c(Cl)c2cc1OC,EC50,[1],26.5 µM
CCC(CNC(=O)c1sc2cc(OC)c(OC)cc2c1F)C(=O)O (racemic),IC50,[2],24.6 µM
same,EC50,[3],17.2 µM
same,EC50,[1],4.8 µM
same,EC50,[4],15.7 µM
COc1cc2sc(C(=O)N[C@H](C)CC(=O)O)c(F)c2cc1OC,EC50,[1],> 100 µM
COc1ccc2c(F)c(C(=O)NCCC(=O)O)sc2c1,EC50,[1],> 100 µM
CCC(CNC(=O)c1sc2c(F)c(OC)c(OC)cc2c1F)C(=O)O (configuration not stated),IC50,[2],75.2 µM
same,EC50,[3],85.9 µM
same,EC50,[1],3.5 µM
same,EC50,[4],92.7 µM
COc1cc2sc(C(=O)NC[C@@H](C)C(=O)O)c(F)c2cc1OC,IC50,[2],28.7 µM
same,EC50,[3],36.5 µM
same,EC50,[1],4.7 µM
same,EC50,[4],27.9 µM
COc1cc2cc(C(=O)NCCC(=O)O)sc2cc1OC,IC50,[2],> 100 µM
same,EC50,[8],> 100 µM
COc1cc2sc3c(c2cc1OC)C(=O)N(CCC(=O)O)C3=O,Activity,MC-38 [10],60%
same,IC50,[2],22.1 µM
same,EC50,[3],19.6 µM
same,half-life,[11],0.35 h
same,half-life at 10 µM,[12],> 1 h
same,EC50,[1],4.5 µM
same,half-life,[13],0.5 h
same,EC50,[4],25.3 µM
same,Activity,MC-38 [14],inactive
same,half-life at 10 µM,[15],> 1 h
same,Activity,MC-38 [16],inactive
same,half-life,[17],> 1 h
same,half-life,[9],21 h
